The record followed here is article PMC5569891 (Chembiochem : a European journal of chemical biology, 2017).

This assay has as its target T1, HsSQS (Homo sapiens, UniProt P37268).
T1 sequence (P37268 1-417): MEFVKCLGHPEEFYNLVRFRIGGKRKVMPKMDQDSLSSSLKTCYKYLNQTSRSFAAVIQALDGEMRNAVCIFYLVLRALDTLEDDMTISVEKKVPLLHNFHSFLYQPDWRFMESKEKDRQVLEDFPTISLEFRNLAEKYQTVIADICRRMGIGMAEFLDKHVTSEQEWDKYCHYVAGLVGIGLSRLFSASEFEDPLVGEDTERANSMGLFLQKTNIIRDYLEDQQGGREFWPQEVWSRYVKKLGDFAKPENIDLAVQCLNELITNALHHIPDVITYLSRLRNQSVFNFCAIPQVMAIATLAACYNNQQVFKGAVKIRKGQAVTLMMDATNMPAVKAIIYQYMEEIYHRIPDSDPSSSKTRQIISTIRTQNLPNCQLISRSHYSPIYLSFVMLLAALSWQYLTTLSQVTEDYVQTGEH
Description: LC-MS of products. In kind it is biochemical. To be noted: no NADPH.

Each structure is given as a SMILES string.

As for `CC(C)=CCC/C(C)=C/CC/C(C)=C/COP(=O)(O)OP(=O)(O)O` [compound 1, farnesyl diphosphate], the “LC-MS of products (PSPP)” value is “LC-MS traces showing reaction products of NmHpnD+FPP (in blue) and HsSQS+FPP (in red)”.
